Data taken from patent US20150038527A1, “FUROPYRIDINE DERIVATIVES” (Merck Patent GmbH, priority 2012, published 2015).

Biological target: T1, SYK (Homo sapiens, UniProt P43405)
T1 construct: 2.5 nM SYK, 400 nM Biotin-Aha-Aha-KEDPDYEWPSAKK and 10 μM ATP
Assay: SYK Flash Plate Assay (enzyme assay)
Format: biochemical
Method: The kinase assay is performed either as 384-well Flashplate assay (for e.g. Topcount measurement) or as 384-well Image-Flashplate assay (for LEADseeker measurement).
2.5 nM SYK, 400 nM Biotin-Aha-Aha-KEDPDYEWPSAKK and 10 μM ATP (spiked with 0.3 μCi 33P-ATP/well) are incubated in a total volume of 50 μl (60 mM Hepes, 10 mM MgCl2, 1.2 mM Dithiothreitol, 0.02% Brij35, 0.1% BSA, pH 7.5) with or without test compound for 1 hours at 30° C. The reaction is stopped with 25 μl 200 mM EDTA. After 30 Min at 30° C. the liquid is removed and each well washed thrice with 100 μl 0.9% sodium chloride solution. Non-specific reaction is determined in presence of 0.1 μM Staurosporine. Radioactivity is measured with Topcount (when using Flashplates) or with LEADseeker (when using Image-Flashplates) respectively. Results (e.g. IC50-values) are calculated with program tools provided by the IT-department (e.g. Symyx Assay Explorer, Genedata Screener).

## COc1ccc(S(N)(=O)=O)cc1-c1cc2nccc(-c3c(OC)cccc3OC)c2o1 [Compound A78, 3-[7-(2,6-dimethoxy-phenyl)-furo[3,2-b]pyridin-2-yl]-4-methoxybenzenesulfonamide]
  IC50: 0.3 to 3 µM

## CCc1ccccc1-c1cc2nccc(-c3cccc(C(=O)N[C@@H]4CCCC[C@@H]4N)c3)c2o1 [Compound A49, N-((1R,2S)-2-amino-cyclohexyl)-3-[2-(2-ethyl-phenyl)-furo[3,2-b]pyridin-7-yl]-benzamide]
  IC50: 3 to 50 µM

## NC(=O)c1ccc(-c2cc3nccc(-c4cccc(C(=O)N[C@@H]5CCCC[C@@H]5N)c4)c3o2)c(F)c1 [Compound A73, 4-{7-[3-((1R,2S)-2-amino-cyclohexylcarbamoyl)-phenyl]-furo[3,2-b]pyridin-2-yl}-3-fluoro-benzamide]
  IC50: 3 to 50 µM

## COc1cc(-c2cc3nccc(-c4ccnc(NC[C@@H]5CCCNC5)c4)c3o2)cc(OC)c1OC [Compound A7, (R)-1-piperidin-3-ylmethyl-{4-[2-(3,4,5-trimethoxy-phenyl)-furo[3,2-b]pyridin-7-yl]-pyridin-2-yl}-amine]
  IC50: 0.3 to 3 µM

## COc1cc(-c2cc3nccc(-c4ccc5[nH]c(=O)n(CCN)c5c4)c3o2)cc(OC)c1OC [Compound A6, 1-(2-amino-ethyl)-6-[2-(3,4,5-trimethoxy-phenyl)-furo[3,2-b]pyridin-7-yl]-1,3-dihydro-benzoimidazol-2-one]
  IC50: 3 to 50 µM

## COc1ccc(C(N)=O)cc1-c1cc2nccc(-c3cnc(F)cc3C)c2o1 [Compound A54, 3-[7-(6-fluoro-4-methyl-pyridin-3-yl)-furo[3,2-b]pyridin-2-yl]-4-methoxybenzamide]
  IC50: 3 to 50 µM

## COc1cc(OCCN)ccc1-c1cc2nccc(-c3ccc4[nH]cnc4c3)c2o1 [Compound A18, 2-{4-[7-(1H-benzoimidazol-5-yl)-furo[3,2-b]pyridin-2-yl]-3-methoxy-phenoxy}-ethylamine]
  IC50: 0.3 to 3 µM

## COc1ccc(C(C)O)cc1-c1ccnc2cc(-c3cc(OC)c(OC)c(OC)c3)oc12 (stereo not drawn) [Compound A21, 1-{4-methoxy-3-[2-(3,4,5-trimethoxy-phenyl)-furo[3,2-b]pyridin-7-yl]-phenyl}-ethanol]
  IC50: 0.1 to 0.3 µM

## COc1ccc(C(N)=O)cc1-c1cc2nccc(-c3ccc4[nH]cnc4c3)c2o1 [Compound A9, 3-[7-(1H-benzoimidazol-5-yl)-furo[3,2-b]pyridin-2-yl]-4-methoxy-benzamide]
  IC50: < 0.1 µM

## Cc1cc(OCCN)ccc1-c1cc2nccc(-c3cccc(C(=O)N[C@@H]4CCCC[C@@H]4N)c3)c2o1 [Compound A52, N-((1R,2S)-2-amino-cyclohexyl)-3-{2-[4-(2-amino-ethoxy)-2-methyl-phenyl]-furo[3,2-b]pyridin-7-yl}-benzamide]
  IC50: 0.3 to 3 µM

## COc1cc(-c2cc3nccc(-c4cc[nH]c4)c3o2)cc(OC)c1OC [Compound A83, 7-(1H-pyrrol-3-yl)-2-(3,4,5-trimethoxy-phenyl)-furo[3,2-b]pyridine]
  IC50: < 0.1 µM

## COc1cccc(OC)c1-c1ccnc2cc(-c3cc(C(N)=O)ccc3N)oc12 [Compound A107, 4-amino-3-[7-(2,6-dimethoxy-phenyl)-furo[3,2-b]pyridin-2-yl]-benzamide]
  IC50: 0.1 to 0.3 µM

## COc1ccc(C(=O)NCC(C)(C)N)cc1-c1cc2nccc(-c3c(OC)cccc3OC)c2o1 [Compound A68, N-(2-amino-2-methyl-propyl)-3-[7-(2,6-dimethoxy-phenyl)-furo[3,2-b]pyridin-2-yl]-4-methoxy-benzamide]
  IC50: 0.3 to 3 µM

## COc1ccc(C(=O)NCCN)cc1-c1cc2nccc(-c3c(OC)cccc3OC)c2o1 [Compound A71, N-(2-amino-ethyl)-3-[7-(2,6-dimethoxy-phenyl)-furo[3,2-b]pyridin-2-yl]-4-methoxy-benzamide]
  IC50: 0.3 to 3 µM

## COc1ccc(-c2ncon2)cc1-c1cc2nccc(-c3cc[nH]n3)c2o1 [Compound A92, 2-(2-methoxy-5-[1,2,4]oxadiazol-3-yl-phenyl)-7-(1H-pyrazol-3-yl)-furo[3,2-b]pyridine]
  IC50: < 0.1 µM

## COc1ccc(C(N)=O)cc1-c1cc2nccc(-c3c(OC)cc(C(=O)NCCN)cc3OC)c2o1 [Compound A76, N-(2-amino-ethyl)-4-[2-(5-carbamoyl-2-methoxy-phenyl)-furo[3,2-b]pyridin-7-yl]-3,5-dimethoxy-benzamide]
  IC50: < 0.1 µM

## Cc1cc2[nH]ncc2cc1-c1cc2nccc(-c3cccc(C(=O)N[C@@H]4CCCC[C@@H]4N)c3)c2o1 [Compound A45, N-((1R,2S)-2-amino-cyclohexyl)-3-[2-(6-methyl-1H-indazol-5-yl)-furo[3,2-b]pyridin-7-yl]-benzamide]
  IC50: 0.3 to 3 µM

## COc1ccc(-c2noc(=O)[nH]2)cc1-c1cc2nccc(-c3cc[nH]n3)c2o1 [Compound A105, 3-{4-methoxy-3-[7-(1H-pyrazol-3-yl)-furo[3,2-b]pyridin-2-yl]-phenyl}-4H-[1,2,4]oxadiazol-5-one]
  IC50: < 0.1 µM

## COc1cc(-c2cc3nccc(-c4cccc(C(=O)N[C@@H]5CCCC[C@@H]5NC(C)=O)c4)c3o2)cc(OC)c1OC [Compound A34, N-((1R,2S)-2-acetylamino-cyclohexyl)-3-[2-(3,4,5-trimethoxy-phenyl)furo[3,2-b]pyridin-7-yl]-benzamide]
  IC50: 3 to 50 µM

## COc1ccc(-c2noc(CN)n2)cc1-c1cc2nccc(-c3c(OC)cccc3OC)c2o1 [Compound A106, C-(3-{3-[7-(2,6-dimethoxy-phenyl)-furo[3,2-b]pyridin-2-yl]-4-methoxy-phenyl}-[1,2,4]oxadiazol-5-yl)-methylamine]
  IC50: < 0.1 µM

## COC[C@@H](N)CNC(=O)c1cccc(-c2ccnc3cc(-c4cc(OC)c(OC)c(OC)c4)oc23)c1 [Compound A26, N—((S)-2-amino-3-methoxy-propyl)-3-[2-(3,4,5-trimethoxy-phenyl)-furo[3,2-b]pyridin-7-yl]-benzamide]
  IC50: 3 to 50 µM

## COCC(O)CNC(=O)c1ccc(OC)c(-c2cc3nccc(-c4c(OC)cccc4OC)c3o2)c1 (stereo not drawn) [Compound A69, 3-[7-(2,6-dimethoxy-phenyl)-furo[3,2-b]pyridin-2-yl]-N-(2-hydroxy-3-methoxypropyl)-4-methoxy-benzamide]
  IC50: 0.3 to 3 µM

## COc1cc(-c2cc3nccc(-c4cccc(C(=O)N[C@@H]5CCC[C@H]5O)c4)c3o2)cc(OC)c1OC [Compound A12, N-((1R,2R)-2-hydroxy-cyclopentyl)-3-[2-(3,4,5-trimethoxy-phenyl)-furo[3,2-b]pyridin-7-yl]-benzamide]
  IC50: 0.3 to 3 µM

## COc1ccc(C(N)=O)cc1-c1cc2nccc(-c3ccnc(NCCN)c3)c2o1 [Compound A80, 3-{7-[2-(2-amino-ethylamino)-pyridin-4-yl]-furo[3,2-b]pyridin-2-yl}-4-methoxybenzamide]
  IC50: < 0.1 µM

## COc1ccc(Cl)c(-c2cc3nccc(-c4cccc(C(=O)N[C@@H]5CCCC[C@@H]5N)c4)c3o2)c1 [Compound A25, N-((1R,2S)-2-amino-cyclohexyl)-3-[2-(2-chloro-5-methoxy-phenyl)-furo[3,2-b]pyridin-7-yl]-benzamide]
  IC50: 0.3 to 3 µM

## COc1cc(-c2cc3nccc(-c4ccc(N(C)C)cc4)c3o2)cc(OC)c1OC [Compound A65, dimethyl-{4-[2-(3,4,5-trimethoxy-phenyl)-furo[3,2-b]pyridin-7-yl]-phenyl}-amine]
  IC50: 3 to 50 µM

## COc1cc(OCCN)ccc1-c1cc2nccc(-c3cccc(C(=O)NCCO)c3)c2o1 [Compound A29, 3-{2-[4-(2-amino-ethoxy)-2-methoxy-phenyl]-furo[3,2-b]pyridin-7-yl}-N-(2-hydroxy-ethyl)-benzamide]
  IC50: 3 to 50 µM
